In PubChem BioAssay (NCI):
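Here, GI50 denotes the concentration required for 50% inhibition of growth. At the TGI there is no net growth.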

Columns and labels:
Experiment in all cases: NCI-60 cell line screen, 384-well format
NCI-H226 lung = tested on: NCI-H226 lung
A549 NSCLC = tested on: A549 NSCLC
KM12 colon = tested on: KM12 colon
UACC-257 melanoma = tested on: UACC-257 melanoma
OVCAR-5 ovarian = tested on: OVCAR-5 ovarian
CAKI-1 renal = tested on: CAKI-1 renal
DU-145 prostate = tested on: DU-145 prostate
SR leukemia = tested on: SR leukemia
HCT-15 colon = tested on: HCT-15 colon
IGROV1 ovarian = tested on: IGROV1 ovarian
786-0 renal = tested on: 786-0 renal
K-562 leukemia = tested on: K-562 leukemia
LOX IMVI melanoma = tested on: LOX IMVI melanoma
SF-268 CNS = tested on: SF-268 CNS
CCRF-CEM leukemia = tested on: CCRF-CEM leukemia
HOP-62 NSCLC = tested on: HOP-62 NSCLC
A498 renal = tested on: A498 renal
NCI-H23 lung = tested on: NCI-H23 lung
UO-31 renal = tested on: UO-31 renal
MDA-MB-435 melanoma = tested on: MDA-MB-435 melanoma
SF-295 CNS = tested on: SF-295 CNS
TK-10 renal = tested on: TK-10 renal
T-47D breast = tested on: T-47D breast
SW-620 colon = tested on: SW-620 colon
HOP-92 NSCLC = tested on: HOP-92 NSCLC
RPMI-8226 leukemia = tested on: RPMI-8226 leukemia
NCI-H522 lung = tested on: NCI-H522 lung
SN12C renal = tested on: SN12C renal
SK-MEL-5 melanoma = tested on: SK-MEL-5 melanoma
PC-3 prostate = tested on: PC-3 prostate
OVCAR-3 ovarian = tested on: OVCAR-3 ovarian
HT29 colon = tested on: HT29 colon
NCI-H322M lung = tested on: NCI-H322M lung
COLO 205 colon = tested on: COLO 205 colon
MOLT-4 leukemia = tested on: MOLT-4 leukemia
ACHN renal = tested on: ACHN renal
RXF 393 renal = tested on: RXF 393 renal
HCC-2998 colon = tested on: HCC-2998 colon
BT-549 breast = tested on: BT-549 breast
SK-MEL-28 melanoma = tested on: SK-MEL-28 melanoma
NCI/ADR-RES ovarian = tested on: NCI/ADR-RES ovarian
SK-OV-3 ovarian = tested on: SK-OV-3 ovarian
MDA-MB-231 breast = tested on: MDA-MB-231 breast
SNB-75 CNS = tested on: SNB-75 CNS
SF-539 CNS = tested on: SF-539 CNS
EKVX NSCLC = tested on: EKVX NSCLC
OVCAR-8 ovarian = tested on: OVCAR-8 ovarian
HS 578T breast = tested on: HS 578T breast
U251 glioblastoma = tested on: U251 glioblastoma
HL-60(TB) leukemia = tested on: HL-60(TB) leukemia
SNB-19 CNS = tested on: SNB-19 CNS
M14 melanoma = tested on: M14 melanoma
OVCAR-4 ovarian = tested on: OVCAR-4 ovarian
HCT-116 colon = tested on: HCT-116 colon
MCF7 breast = tested on: MCF7 breast
MALME-3M melanoma = tested on: MALME-3M melanoma
MDA-MB-468 breast = tested on: MDA-MB-468 breast
NCI-H460 NSCLC = tested on: NCI-H460 NSCLC

CN1CCN(c2ccc3nc(-c4c(N)c5c(F)cccc5[nH]c4=O)[nH]c3c2)CC1
GI50 (NCI-H226 lung): 0.545 µM
TGI (NCI-H226 lung): 1.98 µM
GI50 (A549 NSCLC): 0.72 µM
TGI (A549 NSCLC): 1.99 µM
GI50 (KM12 colon): 0.0331 µM
TGI (KM12 colon): 1.45 µM
GI50 (UACC-257 melanoma): 1.15 µM
TGI (UACC-257 melanoma): 2.38 µM
GI50 (OVCAR-5 ovarian): 1.4 µM
TGI (OVCAR-5 ovarian): 3.58 µM
GI50 (CAKI-1 renal): 0.265 µM
TGI (CAKI-1 renal): 1.32 µM
GI50 (DU-145 prostate): 0.779 µM
TGI (DU-145 prostate): 2.1 µM
GI50 (SR leukemia): 0.17 µM
TGI (SR leukemia): 0.337 µM
GI50 (HCT-15 colon): 0.417 µM
TGI (HCT-15 colon): 1.63 µM
GI50 (IGROV1 ovarian): 0.276 µM
TGI (IGROV1 ovarian): 1.35 µM
GI50 ([…]-0 renal): 1.07 µM
TGI (786-0 renal): 2.3 µM
GI50 (K-562 leukemia): 0.441 µM
TGI (K-562 leukemia): 1.54 µM
GI50 (LOX IMVI melanoma): 0.938 µM
TGI (LOX IMVI melanoma): 2.13 µM
GI50 (SF-268 CNS): 1.25 µM
TGI (SF-268 CNS): 2.83 µM
GI50 (CCRF-CEM leukemia): 0.369 µM
TGI (CCRF-CEM leukemia): 1.08 µM
GI50 (HOP-62 NSCLC): 1.08 µM
TGI (HOP-62 NSCLC): 2.32 µM
GI50 (A498 renal): 0.472 µM
TGI (A498 renal): 1.77 µM
GI50 (NCI-H23 lung): 1.15 µM
TGI (NCI-H23 lung): 2.44 µM
GI50 (UO-31 renal): 0.397 µM
TGI (UO-31 renal): 1.6 µM
GI50 (MDA-MB-435 melanoma): 1.28 µM
TGI (MDA-MB-435 melanoma): 2.56 µM
GI50 (SF-295 CNS): 1.33 µM
TGI (SF-295 CNS): 2.61 µM
GI50 (TK-10 renal): 1.25 µM
TGI (TK-10 renal): 3.22 µM
GI50 (T-47D breast): 1.7 µM
TGI (T-47D breast): 3.1 µM
GI50 (SW-620 colon): 0.476 µM
TGI (SW-620 colon): 1.64 µM
GI50 (HOP-92 NSCLC): 0.645 µM
TGI (HOP-92 NSCLC): 2 µM
GI50 (RPMI-8226 leukemia): 0.329 µM
TGI (RPMI-8226 leukemia): 1.24 µM
GI50 (NCI-H522 lung): 0.99 µM
TGI (NCI-H522 lung): 2.16 µM
GI50 (SN12C renal): 0.442 µM
TGI (SN12C renal): 1.59 µM
GI50 (SK-MEL-5 melanoma): 1.08 µM
TGI (SK-MEL-5 melanoma): 2.28 µM
GI50 (PC-3 prostate): 1.08 µM
TGI (PC-3 prostate): 3.83 µM
GI50 (OVCAR-3 ovarian): 1.06 µM
TGI (OVCAR-3 ovarian): 2.26 µM
GI50 (HT29 colon): 1.24 µM
TGI (HT29 colon): 2.55 µM
GI50 (NCI-H322M lung): 1.15 µM
TGI (NCI-H322M lung): 2.9 µM
GI50 (COLO 205 colon): 1.01 µM
TGI (COLO 205 colon): 2.17 µM
GI50 (MOLT-4 leukemia): 0.171 µM
TGI (MOLT-4 leukemia): 0.31 µM
GI50 (ACHN renal): 0.344 µM
TGI (ACHN renal): 1.5 µM
GI50 (RXF 393 renal): 0.34 µM
TGI (RXF 393 renal): 1.37 µM
GI50 (HCC-2998 colon): 0.744 µM
TGI (HCC-2998 colon): 2.02 µM
GI50 (BT-549 breast): 0.451 µM
TGI (BT-549 breast): 1.7 µM
GI50 (SK-MEL-28 melanoma): 1.78 µM
TGI (SK-MEL-28 melanoma): 3.17 µM
GI50 (NCI/ADR-RES ovarian): 1.61 µM
TGI (NCI/ADR-RES ovarian): 3.06 µM
GI50 (SK-OV-3 ovarian): 0.325 µM
TGI (SK-OV-3 ovarian): 1.47 µM
GI50 (MDA-MB-231 breast): 1.84 µM
TGI (MDA-MB-231 breast): 4.05 µM
GI50 (SNB-75 CNS): 0.493 µM
TGI (SNB-75 CNS): 1.8 µM
GI50 (SF-539 CNS): 0.293 µM
TGI (SF-539 CNS): 1.16 µM
GI50 (EKVX NSCLC): 1.04 µM
TGI (EKVX NSCLC): 2.39 µM
GI50 (OVCAR-8 ovarian): 1.24 µM
TGI (OVCAR-8 ovarian): 2.53 µM
GI50 (HS 578T breast): 0.358 µM
TGI (HS 578T breast): 1.5 µM
GI50 (U251 glioblastoma): 0.714 µM
TGI (U251 glioblastoma): 2.01 µM
GI50 (HL-60(TB) leukemia): 0.357 µM
TGI (HL-60(TB) leukemia): 1.29 µM
GI50 (SNB-19 CNS): 1.48 µM
TGI (SNB-19 CNS): 3.12 µM
GI50 (M14 melanoma): 0.34 µM
TGI (M14 melanoma): 1.51 µM
GI50 (OVCAR-4 ovarian): 1.53 µM
TGI (OVCAR-4 ovarian): 2.96 µM
GI50 (HCT-116 colon): 0.624 µM
TGI (HCT-116 colon): 1.9 µM
GI50 (MCF7 breast): 1.04 µM
TGI (MCF7 breast): 2.23 µM
GI50 (MALME-3M melanoma): 0.495 µM
TGI (MALME-3M melanoma): 1.67 µM
GI50 (MDA-MB-468 breast): 1.08 µM
TGI (MDA-MB-468 breast): 2.32 µM
GI50 (NCI-H460 NSCLC): 0.39 µM
TGI (NCI-H460 NSCLC): 1.43 µM
